Read-outs that look alike come from different tables or passages of the source.
Tests used:
RBD1 of MSI1 = biological target: T1, RBD1 of MSI1 (Homo sapiens, UniProt O43347); assay: FP dose-response (competition) disrupting RBD1-Numb^FITC complex; assay type: binding
T1 construct: made in house; host or cells: Escherichia coli
T1 sequence (O43347 20-107): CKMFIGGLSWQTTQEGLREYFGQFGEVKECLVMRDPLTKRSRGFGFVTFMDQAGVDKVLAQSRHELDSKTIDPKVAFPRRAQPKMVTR
Description: To further examine the initial hits, we tested compounds with similar scaffolds shown in Figure 3 and Figure S1 in an FP dose-response assay. […] We thus focused our further validation studies on Aza-9.
Figure 4 FP dose-response validation compounds binding to RBD1 of MSI1. Ki values were calculated based on the Kd and the dose-response curves. TEXT PRINTED IN THE PICTURE: Aza-7: IC50 [μM]: 7.1; Ki [μM]: 3.0 | Aza-8: IC50 [μM]: 4.0; Ki [μM]: 1.7 | Aza-9: IC50 [μM]: 2.8; Ki [μM]: 1.2 | Aza-10: IC50 [μM]: 7.5; Ki [μM]: 3.2 | Aza-11: IC50 [μM]: 3.9; Ki [μM]: 1.7 | Aza-12: IC50 [μM]: 6.3; Ki [μM]: 2.7 | Aza-13: IC50 [μM]: 4.5; Ki [μM]: 1.9 | Aza-14: IC50 [μM]: 11.6; Ki [μM]: 5.0 | Aza-15: IC50 [μM]: >20 | Aza-16: IC50 [μM]: 6.8; Ki [μM]: 2.9 | Aza-17: IC50 [μM]: >20
pET21a-GB1-RBD1 (MSI1-RBD1) plasmids encoding the Homo sapiens RNA binding domain 1 (RBD1, residues 20-107) of MSI1 were constructed with Mus musculus cDNAs under T7 promoter. MSI1-RBD1 proteins were expressed in Escherichia coli and purified, as previously described. Protein concentrations were determined using the Bradford assay (Bio-Rad, Hercules, CA, USA). Purification of MSI2-RBD1 protein was carried out according to the previous publication.
FP, SPR and NMR assays were carried out according to the previous publication. For computer modeling of Aza-9 to MSI1/2, the AutoDock4.2.6 program was used for predicting the binding mode. The NMR structure of MSI1-RBD1 in complex with RNA (PDB: 2RS2) and the NMR structure of apo MSI2-RBD1 (PDB: 6C8U) were used as the receptor structure. The MSI1 RBD1–RNA interface and corresponding site in MSI2-RBD1 was used as the starting point for the docking calculations. The initial three-dimensional model of the Aza-9 compound was generated using the BABEL program and was used as starting coordinates to define the ligand structure. For docking, a grid box of size 40 × 44 × 56 A with 0.375 A spacing was centered at residue F23 in MSI1-RBD1 (or F24 in MSI2-RBD1). A total of 200 docking runs were carried out using the Lamarckian genetic algorithm. The docked conformation with the lowest energy was selected as the final conformation.

MSI1 = test system: T2, MSI1; assay: Numb RNA pull-down from HCT-116 β/W cell lysate; assay type: cell-based, Human; details: 20 μM, 6 h
T2 construct: test whether biotinylated Numb RNA (Numb^biotin) can pull down MSI1 protein from the cell lysate; endogenous in cells; host or cells: HCT-116 β/W
Text: To test whether Aza-9 disrupts the binding of MSI1 to Numb RNA in cells, we carried out an RNA pull-down assay using HCT-116 β/W cell lysate. Before we tested our compound in the assay, we tested whether biotinylated Numb RNA (Numb^biotin) can pull down MSI1 protein from the cell lysate. […] Mutations in Numb (Numb-mut^biotin) attenuated its binding to MSI1 (lane 2 versus lane 4, Figure 5B and Figure S4 top panel). As a positive control, we added non-labelled Numb RNA to the system, Numb RNA completely abolished the binding between Numb^biotin and MSI1 (lane 6 versus lane 4, Figure 5B and Figure S4 top panel). […] Next, we tested whether Aza-9 can attenuate MSI1 RNA binding.
RNA pull-downs were carried out according to manufacturer’s protocol with modifications (Roche, Basel, Switzerland). Briefly, HCT-116 β/W cells were plated on 100 mm dish on day 1. The next day, cells were treated with Aza-9 (20 μM) or DMSO for 6 h, and cell lysates were collected using buffer 1 from IP kit (Roche). Protein concentrations were measured for each sample, and streptavidin beads were added for preclearance and incubated at 4 °C for 3 h. After preclearance, for each sample, 500 μg of total protein was transferred to a new tube. For positive control, unlabeled Numb (final concentration: 5 μM) was added and incubated in 4 °C. […]

GB1-RBD1 (MSI1) = test system: T3, GB1-RBD1 (MSI1); assay: SPR binding to immobilized GB1-RBD1; set-up: species or system Homo sapiens; details: increasing concentrations
T3 construct: made in house; host or cells: Escherichia coli
Text: An SPR assay with the protein GB1-RBD1 and not the RNA allowed us to evaluate the binding of the compound to the protein directly.
Figure 5 Validation of the top hit Aza-9. (A) SPR analyses of Aza-9 binding to immobilized GB1-RBD1. Sensorgram representing direct binding kinetics for Aza-9 are shown in response units (RUs) as a function of time with increasing concentrations (shown as colorful lines). (B) Numb RNA pulldown. (Top) Numb^biotin (lane 4) can pull down MSI1 but not CTL^biotin (lane 3); Numb-Mut^biotin (lane 2) partially pulled down MSI1. […] (Bottom) 20 μM Aza-9 attenuated the binding between MSI1 and Numb^biotin RNA. n = 2, one representative western blot is shown. (C) Overlay of 15N-HSQC (Heteronuclear single quantum coherence spectroscopy) spectra sections of MSI1-RBD1 (black), and MSI1-RBD1 bound to Aza-9 at different ratios. (D) Computational docking of Aza-9 bound to RBD1. The Aza-9 is shown in sticks, and the protein is represented as spheres. Three of MSI1-RBD1 RNA binding residues (W29, F23, and K93) that undergo significant peak shifts are highlighted in cyan.
FP, SPR and NMR assays were carried out according to the previous publication. For computer modeling of Aza-9 to MSI1/2, the AutoDock4.2.6 program was used for predicting the binding mode. […]

HCT-116 = assay: MTT-based cytotoxicity assay; assay type: cell-based, Human
Description: In an 3-(4,5-dimethylthiazol-2-yl)-2,5-diphenyl tetrazolium bromide (MTT)-based cytotoxicity assay, free Aza-9 had no effect on the cell viability (Figure 7A), potentially due to poor cellular uptake (Figure 7B, upper left panel). We then used PEGylated liposomes to facilitate Aza-9 entry into the cells (Figure 7B, bottom panel compare to upper left panel). Compared to the free Aza-9, which has no effect at 300 µM, Aza-9-liposome (Aza-9-lip) killed colon cancer cell line HCT-116 with an IC50 around 90 µM (Figure 7A). […] Consistent with MTT, Aza-9-lip, but not liposomes, inhibited cell proliferation in a cell growth assay (Figure 7C). […] (Figure 8A). To determine whether Aza-9-lip induces apoptosis and/or autophagy in the colon cancer cell lines, we first measured caspase-3 and PARP cleavage levels. As shown in Figure 8B and Figure S5, Aza-9-lip induced caspase-3 and PARP cleavage in HCT-116 and DLD-1 cells. […]
Human colon cancer cell lines HCT-116, DLD-1, and RKO were obtained from American Type Culture Collection (ATCC) and are as described by Lan et al.. Cell growth, MTT, cell cycle analysis, western blot analysis, RT-PCR, and quantitative real-time PCR were carried out according to our previous publications. For western blot analysis with Aza-9-liposome treatment, samples were collected after 24 h; for quantitative real-time PCR, samples were collected after 48 h. […]

MSI2-RBD1 = biological target: T4, MSI2-RBD1 (Homo sapiens, UniProt Q96DH6); assay: FP dose response of binding to MSI2-RBD1 (Numb^FITC RNA)
T4 construct: made in house
T4 sequence (Q96DH6 21-111 limits assumed): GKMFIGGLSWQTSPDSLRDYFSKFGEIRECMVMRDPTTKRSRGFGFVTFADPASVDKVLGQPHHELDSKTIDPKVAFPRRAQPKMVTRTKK
Text: To test whether Aza-9 can be used as a dual inhibitor to block the RNA-binding ability of both Musashi proteins, we tested Aza-9 for Musashi-2 (MSI2) binding in FP and NMR assays as previously described. […] These residues are in similar positions to F23, F65, and K93 in MSI1-RBD1 [36]. We mapped the peak intensity ratios lower than one standard deviation from the mean (Figure S2) to the structure of MSI2-RBD1. Residues with significant peak intensity reductions clustered around the RNA binding site, which is composed of the central four anti-parallel β sheets and surrounding loops (Figure 6C).
Figure 6 Aza-9 binds to MSI2-RBD1. (A) FP dose response of Aza-9 binding to MSI2-RBD1. (B) ^1H-^15N HSQC spectra of 80 μM ^15N and ^13C ILV methyl labeled MSI2-RBD1 with increasing molar ratios of AZA-9. (C) Mapping residues with peak intensity ratio lower than one standard deviation from the mean onto the structure of MSI2-RBD1. Residues with peak intensity ratio lower than 0.40 are colored red; residues with peak intensity ratios in the range of 0.40–0.54 are colored yellow. (D) Computational docking of Aza-9 bound to MSI2-RBD1. The Aza-9 is shown in sticks, and the protein is represented as spheres. Five of MSI2-RBD1 RNA binding residues (M23, G26, F64, V95, and K94) that undergo significant peak shifts are highlighted in green. […]

GB1-MSI1-RBD1 = GB1-MSI1-RBD1 (Homo sapiens (Methods: human RBD1, …, UniProt O43347 20-107)); assay: fluorescence polarization; 2-10 nM RNA; FP with 2 nM FITC-RNA; 0-2% DMSO had no significant effect (2 h incubation); buffer, salt, pH and temperature not given (cited to earlier publications); details: protein: recombinant; tags: GB1 (protein G B1 domain); label: 3'-FITC; single strand
[1] = FP dose-response, RBD1 of MSI1, read-out: IC50
[2] = calculated based on the Kd and the dose-response curves, read-out: Ki

Q: What does the source list for `CC[C@H](C)/C=C(C)/C=C/C1=CC2=C(Br)C(=O)C(C)(OC(C)=O)C(=O)C2=CO1` (some centres unmarked) [Aza-9]?
A: dose-response effect in disrupting the RBD1-Numb^FITC complex / affinity towards GB1-RBD1 (RBD1 of MSI1): highest affinity; IC50 (RBD1 of MSI1; [1]): 2.8 µM; Ki (RBD1 of MSI1; [2]): 1.2 µM; binding between MSI1 and Numb RNA (pull-down) (MSI1): attenuate, at least in part; binding to GB1-RBD1 in SPR (GB1-RBD1 (MSI1)): dose-dependent binding; effect on cell viability (HCT-116; 300 µM, HCT-116): no effect; IC50 (HCT-116; Homo sapiens, HCT-116, MTT): > 300 µM; IC50 (MSI2-RBD1): 4.1 µM; Ki (MSI2-RBD1): 0.5 µM

Q: How did the IC50 (RBD1 of MSI1) turn out when `CC[C@H](C)/C=C(C)/C=C/C1=CC2=C(Cl)C(=O)C(C)(O)C(=O)C2=CO1` (some centres unmarked) [Aza-12] was run?
A: Its IC50 is 6.3 µM.

Q: What about the Ki (RBD1 of MSI1) of the same molecule?
A: Its Ki is 2.7 µM.

Q: Which results are given for `CC[C@H](C)/C=C(C)/C=C/C1=CC2=C(Br)C(=O)C(C)(O)C(=O)C2=CO1` (some centres unmarked) [Aza-13]?
A: IC50 (RBD1 of MSI1; [1]): 4.5 µM; Ki (RBD1 of MSI1; [2]): 1.9 µM

Q: For `CC[C@H](C)/C=C(C)/C=C/C1=CC2=C(Cl)C(=O)[C@](C)(OC(C)=O)C(=O)C2=CO1` [Aza-7, sclerotiorin], which IC50 (RBD1 of MSI1; [1]) is on record?
A: The IC50 was 7.1 µM.

Q: And the Ki (RBD1 of MSI1; [2])?
A: The Ki was 3 µM.

Q: How did the IC50 (RBD1 of MSI1; [1]) turn out when `CC[C@H](C)/C=C(C)/C=C/C1=CC2=CC(=O)C(C)(O)C(=O)C2=CO1` (some centres unmarked) [Aza-11] was run?
A: Its IC50 is 3.9 µM.

Q: What about the Ki (RBD1 of MSI1; [2]) of the same molecule?
A: The Ki was 1.7 µM.

Q: Which results are given for `CC[C@H](C)/C=C(C)/C=C/C1=CC2=C(Cl)C(=O)C(C)(OC(C)=O)C(=O)C2=CO1` (some centres unmarked) [Aza-8]?
A: IC50 (RBD1 of MSI1; [1]): 4 µM; Ki (RBD1 of MSI1; [2]): 1.7 µM

B1: NumbFITC RNA (ssRNA)
RNA: UAGGUAGUAGUUUUA
Q: How did the Kd (GB1-MSI1-RBD1) turn out when B1 was run?
A: Its Kd is < 0.25 µM.
